Reference: patent US12077503B2, “Substituted cyclic amides and their use as herbicides” (FMC CORPORATION, priority 2015, dated 2024)

Key:
Format in all cases: in vivo
Kochia (Kochia scoparia) [1] = experiment: Test A preemergence; settings: Bassia scoparia, pre-emergence, 240 h, 0 to 100 scale where 0 is no effect and 100 is complete control, read-out: Kochia plant response rating
In short: (§1)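 Seeded soil received test chemicals as a preemergence directed spray, and seedlings at one to two leaves, 2–10 cm tall, received them postemergence, in a non-phytotoxic, surfactant-containing solvent mixture. Pots were held in a greenhouse for approximately 10 d, then rated for injury from 0, no effect, to 100, complete control.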

[2] = system: barnyardgrass (Echinochloa crus-galli); experiment: Test A preemergence; settings: Echinochloa crus-galli, pre-emergence, 240 h, Preemergence
In short: as §1

[3] = system: giant foxtail (Setaria faberii); experiment: Test A preemergence; settings: Setaria faberi, pre-emergence, 240 h, Preemergence
In short: as §1

[4] = system: pigweed (Amaranthus retroflexus); experiment: Test A preemergence; settings: Amaranthus retroflexus, pre-emergence, 240 h, 0 to 100 scale where 0 is no effect and 100 is complete control, read-out: Pigweed plant response rating
[5] = system: ragweed (common ragweed, Ambrosia elatior); experiment: Test A preemergence; settings: Ambrosia artemisiifolia, pre-emergence, 240 h, 0 to 100 scale where 0 is no effect and 100 is complete control, read-out: Ragweed plant response rating
In short: as §1

[6] = system: ryegrass, Italian (Italian ryegrass, Lolium multiflorum); experiment: Test A preemergence; settings: Lolium multiflorum, pre-emergence, 240 h, 0 to 100 scale where 0 is no effect and 100 is complete control, read-out: Ryegrass, Italian plant response rating
In short: as §1

[7] = system: Galium (catchweed bedstraw, Galium aparine); experiment: Test A postemergence; settings: Galium, post-emergence, 240 h
In short: as §1

Kochia (Kochia scoparia) [8] = experiment: Test A postemergence; settings: Bassia scoparia, post-emergence, 240 h
In short: as §1

[9] = system: barnyardgrass (Echinochloa crus-galli); experiment: Test A postemergence; settings: Echinochloa crus-galli, post-emergence, 240 h
In short: as §1

[10] = system: blackgrass (Alopecurus myosuroides); experiment: Test A postemergence; settings: Alopecurus myosuroides, post-emergence, 240 h
In short: as §1

corn (Zea mays) = experiment: Test A postemergence; settings: Zea mays, post-emergence, 240 h
In short: as §1

[11] = system: giant foxtail (Setaria faberii); experiment: Test A postemergence; settings: Setaria faberi, post-emergence, 240 h
In short: as §1

[12] = system: pigweed (Amaranthus retroflexus); experiment: Test A postemergence; settings: Amaranthus retroflexus, post-emergence, 240 h
In short: as §1

[13] = system: ragweed (common ragweed, Ambrosia elatior); experiment: Test A postemergence; settings: Ambrosia artemisiifolia, post-emergence, 240 h
In short: as §1

[14] = system: ryegrass, Italian (Italian ryegrass, Lolium multiflorum); experiment: Test A postemergence; settings: Lolium multiflorum, post-emergence, 240 h
In short: as §1

[15] = system: wheat (Triticum aestivum); experiment: Test A postemergence; settings: Triticum aestivum, post-emergence, 240 h
In short: as §1

[16] = system: barnyardgrass (Echinochloa crus-galli); experiment: Test B flooded paddy test; settings: Echinochloa crus-galli, 250 g ai/ha, Flood; 0 to 100 scale where 0 is no effect and 100 is complete control; read-out: Barnyardgrass plant response rating
In short: (§2)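 2-leaf plants; pots flooded 3 cm over soil; cpd added to paddy water; depth held; greenhouse 13–15 d; visual rating vs controls, 0 = no effect, 100 = complete control.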

[17] = system: ducksalad (Heteranthera limosa); experiment: Test B flooded paddy test; settings: Heteranthera limosa, 250 g ai/ha, Flood; 0 to 100 scale where 0 is no effect and 100 is complete control; read-out: Ducksalad plant response rating
In short: as §2

rice (Oryra sativa) = experiment: Test B flooded paddy test; settings: Oryza sativa, 250 g ai/ha, Flood; 0 to 100 scale where 0 is no effect and 100 is complete control; read-out: Rice plant response rating
In short: as §2

[18] = system: sedge, umbrella (small-flower umbrella sedge, Cyperus difformis); experiment: Test B flooded paddy test; settings: Cyperus difformis, 250 g ai/ha, Flood; 0 to 100 scale where 0 is no effect and 100 is complete control; read-out: Sedge, Umbrella plant response rating
In short: as §2

[19] = 125 g ai/ha, preemergence, approx. 10 d

CN1C[C@H](c2ccc(C(F)(F)F)cc2)[C@@H](C(=O)Nc2cnccc2C(F)(F)F)C1=O [Compound 1065]
pest or weed control at 31 g/ha (Kochia (Kochia scoparia) [1]; 31 g ai/ha, Preemergence): 0%
pest or weed control at 125 g/ha (Kochia (Kochia scoparia) [1]; [19]): 70%
pest or weed control at 31 g/ha ([2]; 31 g ai/ha, 0 to 100 scale where 0 is no effect and 100 is complete control, read-out: Barnyardgrass plant response rating): 0%
pest or weed control at 125 g/ha ([2]; 125 g ai/ha, visual injury rating after approximately 10 d, read-out: Barnyardgrass plant response rating (0 to 100 scale, 0 is no effect, 100 is complete control)): 70%
pest or weed control at 31 g/ha ([3]; 31 g ai/ha, 0 to 100 scale where 0 is no effect and 100 is complete control, read-out: Foxtail, Giant plant response rating): 90%
pest or weed control at 125 g/ha ([3]; 125 g ai/ha, visual injury rating after approximately 10 d, read-out: Foxtail, Giant plant response rating (0 to 100 scale, 0 is no effect, 100 is complete control)): 100%
pest or weed control at 31 g/ha ([4]; 31 g ai/ha, Preemergence): 30%
pest or weed control at 125 g/ha [4, 19]: 70%
pest or weed control at 31 g/ha ([5]; 31 g ai/ha, Preemergence): 0%
pest or weed control at 125 g/ha [5, 19]: 0%
pest or weed control at 31 g/ha ([6]; 31 g ai/ha, Preemergence): 0%
pest or weed control at 125 g/ha [6, 19]: 30%
pest or weed control at 125 g/ha ([7]; 125 g ai/ha, postemergence, visual injury on 0 to 100 scale (0 no effect, 100 complete control), approx. 10 d, read-out: Galium plant response rating): 70%
pest or weed control at 31 g/ha ([7]; Postemergence, 31 g ai/ha, visual injury after approx. 10 d, 0 to 100 scale, 0 no effect, 100 complete control, read-out: Plant response rating, Galium): 40%
pest or weed control at 125 g/ha (Kochia (Kochia scoparia) [8]; 125 g ai/ha, postemergence, visual injury on 0 to 100 scale (0 no effect, 100 complete control), approx. 10 d, read-out: Kochia plant response rating): 40%
pest or weed control at 31 g/ha (Kochia (Kochia scoparia) [8]; Postemergence, 31 g ai/ha, visual injury after approx. 10 d, 0 to 100 scale, 0 no effect, 100 complete control, read-out: Plant response rating, Kochia): 0%
pest or weed control at 125 g/ha ([9]; 125 g ai/ha, postemergence, visual injury on 0 to 100 scale (0 no effect, 100 complete control), approx. 10 d, read-out: Barnyardgrass plant response rating): 40%
pest or weed control at 31 g/ha ([9]; Postemergence, 31 g ai/ha, visual injury after approx. 10 d, 0 to 100 scale, 0 no effect, 100 complete control, read-out: Plant response rating, Barnyardgrass): 0%
pest or weed control at 125 g/ha ([10]; 125 g ai/ha, postemergence, visual injury on 0 to 100 scale (0 no effect, 100 complete control), approx. 10 d, read-out: Blackgrass plant response rating): 50%
pest or weed control at 31 g/ha ([10]; Postemergence, 31 g ai/ha, visual injury after approx. 10 d, 0 to 100 scale, 0 no effect, 100 complete control, read-out: Plant response rating, Blackgrass): 0%
plant injury at 125 g/ha (corn (Zea mays); 125 g ai/ha, postemergence, visual injury on 0 to 100 scale (0 no effect, 100 complete control), approx. 10 d, read-out: Corn plant response rating): 20%
Corn plant response rating (crop injury, 0 = no effect, 100 = complete kill) at 31 g/ha (corn (Zea mays); Postemergence, 31 g ai/ha, visual injury after approx. 10 d, 0 to 100 scale, 0 no effect, 100 complete control): 0%
pest or weed control at 125 g/ha ([11]; 125 g ai/ha, postemergence, visual injury on 0 to 100 scale (0 no effect, 100 complete control), approx. 10 d, read-out: Foxtail, Giant plant response rating): 70%
pest or weed control at 31 g/ha ([11]; Postemergence, 31 g ai/ha, visual injury after approx. 10 d, 0 to 100 scale, 0 no effect, 100 complete control, read-out: Plant response rating, Foxtail, Giant): 0%
pest or weed control at 125 g/ha ([12]; 125 g ai/ha, postemergence, visual injury on 0 to 100 scale (0 no effect, 100 complete control), approx. 10 d, read-out: Pigweed plant response rating): 40%
pest or weed control at 31 g/ha ([12]; Postemergence, 31 g ai/ha, visual injury after approx. 10 d, 0 to 100 scale, 0 no effect, 100 complete control, read-out: Plant response rating, Pigweed): 0%
pest or weed control at 125 g/ha ([13]; 125 g ai/ha, postemergence, visual injury on 0 to 100 scale (0 no effect, 100 complete control), approx. 10 d, read-out: Ragweed plant response rating): 0%
pest or weed control at 31 g/ha ([13]; Postemergence, 31 g ai/ha, visual injury after approx. 10 d, 0 to 100 scale, 0 no effect, 100 complete control, read-out: Plant response rating, Ragweed): 0%
pest or weed control at 125 g/ha ([14]; 125 g ai/ha, postemergence, visual injury on 0 to 100 scale (0 no effect, 100 complete control), approx. 10 d, read-out: Ryegrass, Italian plant response rating): 40%
pest or weed control at 31 g/ha ([14]; Postemergence, 31 g ai/ha, visual injury after approx. 10 d, 0 to 100 scale, 0 no effect, 100 complete control, read-out: Plant response rating, Ryegrass, Italian): 0%
plant injury at 125 g/ha ([15]; 125 g ai/ha, postemergence, visual injury on 0 to 100 scale (0 no effect, 100 complete control), approx. 10 d, read-out: Wheat plant response rating): 20%
plant injury at 31 g/ha ([15]; Postemergence, 31 g ai/ha, visual injury after approx. 10 d, 0 to 100 scale, 0 no effect, 100 complete control, read-out: Plant response rating, Wheat): 0%
pest or weed control at 250 g/ha [16]: 0%
pest or weed control at 250 g/ha [17]: 100%
pest or weed control at 250 g/ha (rice (Oryra sativa)): 0%
pest or weed control at 250 g/ha [18]: 0%
